Experimental data published in patent US20100105685A1, “S-Nitrosothiol Compounds and Related Derivatives” (Galleon Pharmaceuticals, Inc., priority 2006, published 2010).
Entries after “also recorded” stand apart in the source; their conditions may differ.

Assays:
[1] = tested on: fentanyl-induced respiratory depression; experiment: Fentanyl-induced respiratory depression model to assess restoration of ventilatory control; type: in vivo, Sprague-Dawley male rats; conditions: rats; for restoration of ventilatory control / reversing the fentanyl-induced respiratory depression: fentanyl 75 to 150 micrograms per kilogram, intravenous infusion
[2] = cited from earlier work
apnea episodes = conditions: cited from earlier work

O=C(O)CCCCN[C@@H](CS)C(=O)O [GLN 10,013]
restoration of ventilatory control / reversing the fentanyl-induced respiratory depression [1]: successfully restores ventilatory control | reversal of respiratory depression, acute phase ([1]; fentanyl-induced, acute phase (0 to 5 minutes)): reverse respiratory depression | reversal of respiratory depression, chronic phases ([1]; fentanyl-induced, chronic phases (10 to 50 minutes)): reverse respiratory depression

O=C(O)CNC(=O)[C@H](CS)Nc1nccs1 [GLN 10,015]
restoration of ventilatory control / reversing the fentanyl-induced respiratory depression [1]: not be effective; also recorded: does not restore

CC(=O)N[C@@H](CS)C(=O)O [N-acetyl-L-cysteine]
absorption after oral administration [2]: poorly absorbed | first pass metabolism by the liver ([2]; oral administration, destroys most of the parent drug): extensive first pass metabolism

CC(=O)Nc1nnc(S(N)(=O)=O)s1 [acetazolamide]
apnea episodes after treatment (apnea episodes; central apnea patients, low doses, after one month of treatment (25.5 pre-treatment)): 6.8 | decrease in apnea episodes (apnea episodes; central apnea patients, low doses, after one month of treatment): 73% | reduction in apnea episodes (apnea episodes; patients that had predominantly obstructive sleep apnea): about 25%
